Assay results: publication PMC7552917, “Systematic exploration of different E3 ubiquitin ligases: an approach towards potent and selective CDK6 degraders” (Chemical Science, 2020)
Read-outs that look alike come from different tables or passages of the source.

What was measured:
IKZF1 = target: T1, IKZF1 (Homo sapiens, UniProt Q13422+Q96SW2); assay: Neosubstrate IKZF1 degradation, western blot of MM.1S cells; type: cell-based; conditions: 16 h, normalized to DMSO (100%); for remaining activity at 0.1 µM: MM1.S, read-out: D IKZF1: remaining IKZF1 levels;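 for all read-outs here: test concentration 0.1 µM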
T1 construct: endogenous in cells; host or cells: MM.1S (human multiple myeloma)
Text: (§1) We determined the concentration of both kinases and CRBN, the latter in order to control the expression of the corresponding ligase. Since IMiDs, such as pomalidomide, cause the degradation of the lymphoid transcription factors Ikaros (IKZF1) and Aiolos (IKZF3) through the involvement of CRBN,[53],[54] this undesired effect was inspected. […] As further characteristics of CDK4/6d, the desired selectivity of CDK6 over CDK4 degradation and the unwanted influence on the IKZF1 concentration were determined. […] Next, we determined the concentration- and time-dependent activity of 11 (Fig. S2, ESI ^†).
(§2) Multiple myeloma, leukaemia, and murine cell lines:
(§3) After respective designated treatments, cells were washed with 1× PBS and lysed in IP lysis buffer (Pierce) containing HALT protease and phosphatase inhibitor cocktail (Thermo Scientific). Sodium dodecyl sulfate-polyacrylamide gel electrophoresis (SDS-PAGE) was performed with 5–20 µg of protein loaded per sample. Gel electrophoresis was carried out at a constant voltage. Proteins were transferred onto Immobilon-P transfer membranes (Millipore). Membranes were blocked with 5% milk in Tris Buffered Saline with 0.05% Tween 20 (TBS-T) followed by overnight incubation at 4 °C with shaking in primary antibodies diluted in 5% BSA in TBS-T. After incubation with respective secondary HRP-conjugated antibodies diluted in 5% milk in TBST, detection of proteins was performed using either WesternBright ECL HRP substrate or WesternBright Sirius HRP substrate (Advansta). Chemiluminescence was detected with ChemiDoc™ XRS+ System (Bio-Rad). For further detection of other proteins on the same membrane, membranes were subjected to incubation in Restore Western Blot Stripping Buffer, followed by re-blocking, and further probing of proteins was […]

CDK6 = target: T2, CDK6 (Homo sapiens, UniProt Q00534); assay: CDK6 degradation, western blot of MM.1S cells; type: cell-based; conditions: 16 h; for remaining activity at 0.1 µM: MM1.S, read-out: D CDK6: remaining CDK6 levels
T2 construct: Percentage values are normalized to DMSO-treated MM.1S cells and the respective loading controls; endogenous in cells; host or cells: MM.1S (human multiple myeloma)
Text: as §1, §2, §3

CDK4 = target: T3, CDK4 (Homo sapiens, UniProt P11802); assay: CDK4 degradation, western blot of MM.1S cells; type: cell-based; conditions: 16 h; for remaining activity at 0.1 µM: MM1.S, read-out: D CDK4: remaining CDK4 levels
T3 construct: Percentage values are normalized to DMSO-treated MM.1S cells and the respective loading controls; endogenous in cells; host or cells: MM.1S (human multiple myeloma)
Text: as §1, §2, §3

[1] = elog D7.4 by chromatographic (HPLC) method; type: physicochemical; conditions: Polaris C18-A column, pH 7.4, read-out: elog D7.4 (experimental distribution coefficient at pH 7.4)
Protocol: Supplementary Information: Physical Chemistry
N. Molecular Descriptor Calculation […]
O. Physicochemical Measurements
The determination of the elog D7.4 values was performed by a chromatographic method according to […]
The column was a Polaris C18-A column (2 mm I.D., 50 mm length, 3 μm particle size) from Agilent Technologies. A linear mobile phase gradient was applied with […] TRIS buffer adjusted to pH 7.4 and MeCN. Therefore, the gradient was run from 5% […]
between the runs with a constant flow-rate of 0.8 ml/min and a temperature of 25 °C. The output wavelength of the detector was set to 269.5 nm. In order to calibrate the log D7.4 to the retention time, 6 different drugs with known log D7.4 were dissolved in DMSO and 10 µl were injected […]
Approximately 1 mg of the samples was dissolved in DMSO and 5 µl were injected. Analyses were conducted in duplicates. Subsequently, the mean retention times of the analytes were taken to calculate their log D7.4 values with aid of the calibration line.

MDA-MB-231 cells = assay: Cell viability assay (CellTiter-Glo), MDA-MB-231 breast cancer cells; type: cell-based, human; conditions: 96 h
Protocol: Breast cancer cell lines:
To access the compound effect on cell viability, cells were plated in 384-well tissue culture-treated plates (Greiner Bio One). Twenty-four hours later, tested compounds were added into culture to the desired concentrations. Cell viability was measured by using CellTiter-Glo® Luminescent Cell Viability Assay (Promega) at day 4 or day 7 post-treatment and normalized by non-treated controls. […]
Dose response curves were modeled and plotted by using GraphPad Prism software (GraphPad Software). Statistical analysis was performed using GraphPad Prism software (GraphPad Software).
Variance of biological replicates is represented as the standard error of the mean (SEM) or as the […]

[2] = 0.1 μM, MM.1S cells, normalized to DMSO (100%)
[3] = 1 μM, MM.1S cells, normalized to DMSO (100%)

T3 sequence (P11802 whole entry): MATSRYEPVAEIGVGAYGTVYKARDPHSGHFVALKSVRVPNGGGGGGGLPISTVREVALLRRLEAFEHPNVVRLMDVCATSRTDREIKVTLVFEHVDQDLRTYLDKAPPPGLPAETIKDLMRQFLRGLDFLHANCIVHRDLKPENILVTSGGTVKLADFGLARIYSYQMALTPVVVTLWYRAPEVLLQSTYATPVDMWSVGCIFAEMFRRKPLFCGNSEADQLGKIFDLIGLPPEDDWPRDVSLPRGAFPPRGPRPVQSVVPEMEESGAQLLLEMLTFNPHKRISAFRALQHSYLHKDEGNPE
T1 sequence (Q13422 whole entry): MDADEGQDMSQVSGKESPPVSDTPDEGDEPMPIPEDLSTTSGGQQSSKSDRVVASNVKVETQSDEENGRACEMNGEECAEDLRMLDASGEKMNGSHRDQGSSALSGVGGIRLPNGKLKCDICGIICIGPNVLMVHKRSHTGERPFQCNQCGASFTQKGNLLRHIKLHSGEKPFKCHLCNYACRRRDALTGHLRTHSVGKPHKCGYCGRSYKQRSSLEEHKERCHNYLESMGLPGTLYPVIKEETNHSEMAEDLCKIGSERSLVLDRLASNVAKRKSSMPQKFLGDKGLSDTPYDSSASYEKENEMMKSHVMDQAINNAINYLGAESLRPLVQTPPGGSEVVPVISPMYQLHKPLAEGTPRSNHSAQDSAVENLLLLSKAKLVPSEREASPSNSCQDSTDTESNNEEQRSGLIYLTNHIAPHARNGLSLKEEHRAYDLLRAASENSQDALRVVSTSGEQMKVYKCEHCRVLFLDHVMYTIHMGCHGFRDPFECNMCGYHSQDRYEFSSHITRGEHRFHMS
T1 sequence (Q96SW2 whole entry): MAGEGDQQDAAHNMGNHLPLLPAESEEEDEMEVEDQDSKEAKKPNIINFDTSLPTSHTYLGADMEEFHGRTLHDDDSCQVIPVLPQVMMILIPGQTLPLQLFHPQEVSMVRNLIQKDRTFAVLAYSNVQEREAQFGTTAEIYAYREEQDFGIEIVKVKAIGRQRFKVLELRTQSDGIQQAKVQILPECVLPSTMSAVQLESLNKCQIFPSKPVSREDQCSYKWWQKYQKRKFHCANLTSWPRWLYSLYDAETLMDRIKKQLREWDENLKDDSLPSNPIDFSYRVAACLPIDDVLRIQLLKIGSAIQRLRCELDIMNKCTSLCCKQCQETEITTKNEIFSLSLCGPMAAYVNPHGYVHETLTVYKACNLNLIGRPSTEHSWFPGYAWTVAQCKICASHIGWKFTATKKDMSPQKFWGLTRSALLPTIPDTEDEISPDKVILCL
T1 sequence (Q16531 whole entry partner): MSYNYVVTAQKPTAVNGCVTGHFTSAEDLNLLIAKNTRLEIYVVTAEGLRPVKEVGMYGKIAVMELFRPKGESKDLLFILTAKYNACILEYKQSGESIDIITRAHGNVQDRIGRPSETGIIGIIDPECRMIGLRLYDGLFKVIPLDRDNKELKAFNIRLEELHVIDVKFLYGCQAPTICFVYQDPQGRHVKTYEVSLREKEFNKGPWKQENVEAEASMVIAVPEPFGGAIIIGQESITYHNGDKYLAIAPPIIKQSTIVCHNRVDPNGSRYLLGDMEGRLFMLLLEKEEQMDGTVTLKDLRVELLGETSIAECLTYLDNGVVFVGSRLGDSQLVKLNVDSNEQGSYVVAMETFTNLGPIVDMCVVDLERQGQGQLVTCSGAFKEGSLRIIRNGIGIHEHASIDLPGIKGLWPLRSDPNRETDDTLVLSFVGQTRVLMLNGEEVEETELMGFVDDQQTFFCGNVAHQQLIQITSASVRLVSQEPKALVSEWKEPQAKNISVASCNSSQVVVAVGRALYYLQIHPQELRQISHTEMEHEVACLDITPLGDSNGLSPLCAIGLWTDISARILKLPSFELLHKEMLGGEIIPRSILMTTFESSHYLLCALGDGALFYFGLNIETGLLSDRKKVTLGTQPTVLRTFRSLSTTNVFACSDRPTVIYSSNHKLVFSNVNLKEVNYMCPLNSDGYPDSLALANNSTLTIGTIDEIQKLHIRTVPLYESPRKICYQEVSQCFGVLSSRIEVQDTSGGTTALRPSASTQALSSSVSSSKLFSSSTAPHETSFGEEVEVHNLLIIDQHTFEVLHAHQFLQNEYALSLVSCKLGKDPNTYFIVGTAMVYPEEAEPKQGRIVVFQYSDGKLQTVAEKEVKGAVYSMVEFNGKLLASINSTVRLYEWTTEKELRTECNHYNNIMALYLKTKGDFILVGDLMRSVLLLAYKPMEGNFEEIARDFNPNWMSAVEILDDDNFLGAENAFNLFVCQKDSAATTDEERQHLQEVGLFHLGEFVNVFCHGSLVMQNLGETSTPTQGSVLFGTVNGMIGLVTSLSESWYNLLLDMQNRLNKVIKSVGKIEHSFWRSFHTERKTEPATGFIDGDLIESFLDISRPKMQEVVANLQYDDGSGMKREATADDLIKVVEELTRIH
T2 sequence (Q00534 whole entry): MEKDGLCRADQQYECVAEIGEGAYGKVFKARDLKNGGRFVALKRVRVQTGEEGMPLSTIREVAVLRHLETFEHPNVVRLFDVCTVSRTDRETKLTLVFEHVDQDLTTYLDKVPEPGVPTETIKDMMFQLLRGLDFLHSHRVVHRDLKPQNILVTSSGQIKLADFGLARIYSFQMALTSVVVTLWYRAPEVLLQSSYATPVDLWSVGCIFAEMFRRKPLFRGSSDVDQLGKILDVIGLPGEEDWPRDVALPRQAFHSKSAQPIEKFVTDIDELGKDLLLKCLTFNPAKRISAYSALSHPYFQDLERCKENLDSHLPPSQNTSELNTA

CC(=O)c1c(C)c2cnc(Nc3ccc(N4CCN(C(=O)CCCCCNc5cccc6c5C(=O)N(C5CCC(=O)N(C)C5=O)C6=O)CC4)cn3)nc2n(C2CCCC2)c1=O (stereo not shown) [compound 21]
remaining activity at 0.1 µM (IKZF1): 93%
remaining activity at 0.1 µM (CDK6; [2]): > 95%
remaining activity at 0.1 µM (CDK4; [2]): 95%
chromatographic logD [1]: 3.6

CC(=O)c1c(C)c2cnc(Nc3ccc(N4CCN(C(=O)CCCCCOCCCCOCCCCOCCCCNc5cccc6c5C(=O)N(C5CCC(=O)NC5=O)C6=O)CC4)cn3)nc2n(C2CCCC2)c1=O (stereo not shown) [compound 18]
remaining activity at 0.1 µM (IKZF1): 5.9%
Selectivity ratio D CDK4/D CDK6 for the degradation of CDK6 over CDK4 (CDK6; 0.1 μM, MM.1S cells): 3.4
remaining activity at 0.1 µM (CDK6; [2]): 17%
remaining activity at 0.1 µM (CDK4; [2]): 57%
chromatographic logD [1]: 4.4

Nc1cccc2c1C(=O)N(C1CCC(=O)NC1=O)C2=O (stereo not shown) [3 (POM), pomalidomide, reference compound]
D IKZF1: remaining IKZF1 levels (IKZF1; 0.1 μM): 17%
remaining activity at 0.1 µM (CDK6; [2]): 91%
remaining activity at 0.1 µM (CDK4; [2]): 91%

CC(=O)c1c(C)c2cnc(Nc3ccc(N4CCN(C(=O)CCC(=O)NCCCOCCCCOCCCNc5cccc6c5C(=O)N(C5CCC(=O)NC5=O)C6=O)CC4)cn3)nc2n(C2CCCC2)c1=O (stereo not shown) [compound 15]
remaining activity at 0.1 µM (IKZF1): 56%
Selectivity ratio D CDK4/D CDK6 for the degradation of CDK6 over CDK4 (CDK6; 0.1 μM, MM.1S cells): 1.4
remaining activity at 0.1 µM (CDK6; [2]): 65%
remaining activity at 0.1 µM (CDK4; [2]): 91%
chromatographic logD [1]: 3.1

CC(=O)c1c(C)c2cnc(Nc3ccc(N4CCN(CCOCCOCCOc5cc(-c6scnc6C)ccc5CNC(=O)[C@@H]5C[C@H](O)CN5C(=O)[C@H](C(C)C)N5Cc6ccccc6C5=O)CC4)cn3)nc2n(C2CCCC2)c1=O [compound 32]
remaining activity at 0.1 µM (CDK6; [2]): > 95%
remaining activity at 0.1 µM (CDK4; [2]): 82%
Inhibitory activity on cell viability relative to palbociclib (MDA-MB-231 cells): inhibitory activity comparable to palbociclib
chromatographic logD [1]: 3

CC(=O)c1c(C)c2cnc(Nc3ccc(N4CCN(C(=O)CCCCCOCCCCOCCCCOCCCCOCCCCCCNc5cccc6c5C(=O)N(C5CCC(=O)NC5=O)C6=O)CC4)cn3)nc2n(C2CCCC2)c1=O (stereo not shown) [compound 19]
remaining activity at 0.1 µM (IKZF1): 35%
remaining activity at 0.1 µM (CDK6; [2]): 51%
remaining activity at 0.1 µM (CDK4; [2]): > 95%
chromatographic logD [1]: 5.4

CC(=O)c1c(C)c2cnc(Nc3ccc(N4CCN(C(=O)CCCCCOCCOCCOCCOCCOCCOCCCCCCNc5cccc6c5C(=O)N(C5CCC(=O)NC5=O)C6=O)CC4)cn3)nc2n(C2CCCC2)c1=O (stereo not shown) [compound 20]
remaining activity at 0.1 µM (IKZF1): 5.8%
Selectivity ratio D CDK4/D CDK6 for the degradation of CDK6 over CDK4 (CDK6; 0.1 μM, MM.1S cells): 5.4
remaining activity at 0.1 µM (CDK6; [2]): 16%
remaining activity at 0.1 µM (CDK4; [2]): 86%
chromatographic logD [1]: 3.7

CC(=O)c1c(C)c2cnc(Nc3ccc(N4CCN(C(=O)CCCCOCCCCCOCCCCCCNc5cccc6c5C(=O)N(C5CCC(=O)NC5=O)C6=O)CC4)cn3)nc2n(C2CCCC2)c1=O (stereo not shown) [compound 16]
remaining activity at 0.1 µM (IKZF1): 6.7%
Selectivity ratio D CDK4/D CDK6 for the degradation of CDK6 over CDK4 (CDK6; 0.1 μM, MM.1S cells): 2.4
remaining activity at 0.1 µM (CDK6; [2]): 32%
remaining activity at 0.1 µM (CDK4; [2]): 76%
chromatographic logD [1]: 4.6

CC(=O)c1c(C)c2cnc(Nc3ccc(N4CCN(CCCCCCCC(=O)N[C@H](C(=O)N5C[C@@H](O)C[C@H]5C(=O)NCc5ccc(-c6scnc6C)cc5)C(C)(C)C)CC4)cn3)nc2n(C2CCCC2)c1=O [compound 26]
remaining activity at 0.1 µM (CDK6; [2]): > 95%
remaining activity at 0.1 µM (CDK4; [2]): > 95%
Inhibitory activity on cell viability relative to palbociclib (MDA-MB-231 cells): inhibitory activity comparable to palbociclib
chromatographic logD [1]: 3.2

CC(=O)c1c(C)c2cnc(Nc3ccc(N4CCN(C(=O)CCCCOCCOCCOCCNc5cccc6c5C(=O)N(C5CCC(=O)NC5=O)C6=O)CC4)cn3)nc2n(C2CCCC2)c1=O (stereo not shown) [compound 14]
remaining activity at 0.1 µM (IKZF1): 0.8%
Selectivity ratio D CDK4/D CDK6 for the degradation of CDK6 over CDK4 (CDK6; 0.1 μM, MM.1S cells): 3.3
remaining activity at 0.1 µM (CDK6; [2]): 7.8%
remaining activity at 0.1 µM (CDK4; [2]): 26%
chromatographic logD [1]: 3.1

CC(=O)c1c(C)c2cnc(Nc3ccc(N4CCN(C(=O)COCCOCCOCCNc5cccc6c5C(=O)N(C5CCC(=O)NC5=O)C6=O)CC4)cn3)nc2n(C2CCCC2)c1=O (stereo not shown) [compound 13]
remaining activity at 0.1 µM (IKZF1): 1%
Selectivity ratio D CDK4/D CDK6 for the degradation of CDK6 over CDK4 (CDK6; 0.1 μM, MM.1S cells): 1.9
remaining activity at 0.1 µM (CDK6; [2]): 7.7%
remaining activity at 0.1 µM (CDK4; [2]): 15%
chromatographic logD [1]: 2.8

CC(=O)c1c(C)c2cnc(Nc3ccc(N4CCN(C(=O)CCCCCOCCCCCCOCCCCCCNc5cccc6c5C(=O)N(C5CCC(=O)NC5=O)C6=O)CC4)cn3)nc2n(C2CCCC2)c1=O (stereo not shown) [compound 17]
remaining activity at 0.1 µM (IKZF1): 18%
Selectivity ratio D CDK4/D CDK6 for the degradation of CDK6 over CDK4 (CDK6; 0.1 μM, MM.1S cells): 1.7
remaining activity at 0.1 µM (CDK6; [2]): 51%
remaining activity at 0.1 µM (CDK4; [2]): 86%
chromatographic logD [1]: 5.2

CN[C@H](C)C(=O)N[C@H](C(=O)N1C[C@@H](Oc2cccc(OCCOCCOCCOCCN3CCN(c4ccc(Nc5ncc6c(C)c(C(C)=O)c(=O)n(C7CCCC7)c6n5)nc4)CC3)c2)C[C@H]1C(=O)N[C@@H]1CCCc2ccccc21)C1CCCCC1 [compound 36]
D CDK6: remaining CDK6 levels (CDK6; [3]): failed to degrade
remaining activity at 0.1 µM (CDK6): > 95%
D CDK4: remaining CDK4 levels (CDK4; [3]): failed to degrade
remaining activity at 0.1 µM (CDK4): > 95%
chromatographic logD [1]: 4.5

CC(=O)c1c(C)c2cnc(Nc3ccc(N4CCN(C(=O)COCCOCCNc5cccc6c5C(=O)N(C5CCC(=O)NC5=O)C6=O)CC4)cn3)nc2n(C2CCCC2)c1=O (stereo not shown) [compound 12]
remaining activity at 0.1 µM (IKZF1): 0.8%
Selectivity ratio D CDK4/D CDK6 for the degradation of CDK6 over CDK4 (CDK6; 0.1 μM, MM.1S cells): 2.3
remaining activity at 0.1 µM (CDK6; [2]): 8.4%
remaining activity at 0.1 µM (CDK4; [2]): 19%
chromatographic logD [1]: 2.8
